From patent US20240207282A1, “METHOD OF INCREASING CHAPERONE MEDIATED AUTOPHAGY BY STABILIZING THE INTERACTION OF RETINOIC ACID RECEPTOR-ALPHA AND AN INHIBITOR” (ALBERT EINSTEIN COLLEGE OF MEDICINE, priority 2021, published 2024)

Columns and labels:
NIH3T3 cells = experiment: CMA activity, KFERQ-PS-Dendra reporter in NIH3T3 cells; format: cell-based, mouse; details: for CMA activation after washout: 12 h after washing out the compounds from the media; for CMA activating effect upon knock-down of NCoR1: NCoR1 KD NIH3T3, 20 μM, 24 h; for CMA activation: increasing concentrations, 12 or 24 h, compared with AR7
Protocol: CMA activity: Cells were transduced with lentivirus carrying the KFERQ-PS-Dendra reporter as before. Cells were photoactivated by exposure to a 3.5 mA (current constant) light emitting diode (LED: Norlux, 405 nm) for 3 min and then plated in glass-bottom 96 well plates. At the desired times, cells were fixed with 4% PFA and imaged using high-content microscopy (Operetta system, Perkin Elmer). Images were quantified using the manufacturer's software in a minimum of 1,200 cells in 9 independent fields per well. […] This was particularly important in the case of primary human cells where efficiency of transduction was approximately 65%. To avoid con-funding effects for drug-induced changes in cell volume or adherence to the plate that could bring a fraction of the cells per field outside of focus, we set a threshold to count only cells that have at least 1/10 of the average number of […] detected in the untreated wells for each cell type (3-4 puncta/cell in the case of NIH3T3 and N2a cells and 5 puncta/cell in primary human fibroblasts). To measure CMA in the tissues from KFERQ-Dendra mice, the organs of interest were fixed for 12 h at 4° C. in picric acid fixation buffer (2% formaldehyde, 0.2% picric acid in PBS, pH7.0) and then washed with 70% ethanol, followed by two washes in PBS. Tissues were immersed in 30% sucrose and then embedded in OCT for sectioning in a cryostat (Leica CM3050 S). After airdrying for 30 min, sections were stored at −20° C. until use. Slices were mounted in DAPI-Fluoromount-G to highlight the cell nucleus and allow quantification of puncta per cell. Images were acquired in x-y-z planes with an Axiovert 200 fluorescence microscope (Carl Zeiss Ltd) with a ×63 objective and 1.4 numerical aperture, mounted with an ApoTome.2 slider or with a Confocal microscope (TCS SP5; Leica) using an HCX Plan Apo CS×63.0 1.40 NA oil objective and the Leica Application Suite X (LAS X).

NIH3T3 = experiment: Macroautophagy activity (LC3-II flux, mCherry-GFP-LC3 reporter); format: cell-based, mouse; details: 20 μM 16 h (LC3 flux)
Protocol: Macroautophagy activity: Cells were transduced with a lentiviral vector expressing mCherry-GPF-LC3^32, fixed and flux determined as the conversion of dual fluorescence puncta (autophagosomes) into only red fluorescent puncta (autolysosomes). Flux was also measured by immunoblot for LC3 in cells incubated for 6 h with 20 mM NH4Cl/100 μM leupeptin, by discounting the intensity of LC3 in non-treated cells from that in cells treated with the inhibitors.

[1] = molecular target: T1, human RARα LBD / NCoR1 peptide (Homo sapiens, UniProt P10276); experiment: Fluorescence polarization binding assay, RARα LBD with FITC-NCoR1 peptide; details: 10 μM compound
T1 construct: human RARα (residues 176-421); His tag; made in house; host or cells: Escherichia coli BL21(DE3)
T1 sequence (P10276 176-421, other chains not shown): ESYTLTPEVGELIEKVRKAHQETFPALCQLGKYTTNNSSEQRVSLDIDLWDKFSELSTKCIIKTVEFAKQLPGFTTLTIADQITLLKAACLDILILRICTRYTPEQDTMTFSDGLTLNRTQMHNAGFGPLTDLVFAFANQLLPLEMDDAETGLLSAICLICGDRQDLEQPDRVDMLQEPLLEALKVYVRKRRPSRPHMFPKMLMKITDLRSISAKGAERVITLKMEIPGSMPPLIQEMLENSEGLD
Protocol: The histidine-tagged ligand binding domain (LBD) of human RARα (residues 176-421) was expressed in Escherichia colic BL21(DE3). Cells were grown at 37° C. in LB medium supplemented with 50 μg/mL kanamycin until OD600 reached about 0.8. Expression of T7 polymerase was induced by addition of isopropyl-b-d-thiogalactoside (IPTG) to a final concentration of 0.8 mM and cells were incubated at 20° C. overnight. Cell cultures were harvested by centrifugation at 8,000×g for 15 mins. The cell pellet from 1 liter of RARα LBD was resuspended in 50 mL lysis buffer (20 mM Tris-HCl pH 8, 500 mM NaCl, 25 mM imidazole) supplemented with ONE COMPLETE, an EDTA-free protease inhibitor tablet (Roche Applied Science). The suspension was lysed using a high-pressure homogenizer and centrifuged at 35,000×g at 4° C. for 45 minutes. […]
The fluorescein-tagged peptide of NCoR1, FITC-Ahx-RLITLADHICQIITQDFAR (FITC-NCoR1) was provided by Genscript at purity>95%. Fluorescence polarization assays (FPA) were performed using established procedures. […] Fluorescence polarization was measured at 30 min on a F200 PRO microplate reader (TECAN) with the excitation wavelength set at 470 nm and emission measured at 530 nm. EC50 values were calculated by nonlinear regression analysis of competitive binding curves using Graphpad Prism software.

[2] = In vitro solubility by nephelometry; format: physicochemical
Protocol: In vitro solubility in the following conditions A) HBSS/HEPES 10 mM/BSA 0.1% pH 6 B) HBSS/HEPES 10 mM/BSA 0.1% pH 7.4 C) TRIS/BSA 0.1% PBS (pH 7.4 and at indicated doses were measured by Nephelometry using the NEPHELOstar Galaxy apparatus (BMG Lab Technologies). In vitro stability in human, mouse and rat liver microsomes and permeability using a bidirectional permeability assay with CaCo-2 cells (pH 6.5/7.4) assays were performed with standard methodology and analyzed by LC-MS/MS. at SIMM-SERVIER joint Biopharmacy Laboratory. In silico ADME properties calculated by QikProp (Schrodinger, LLC) analysis and ADME predictions for CA39 (left) and CA77 (right).

Row | SMILES | CMA activation after washout (NIH3T3 cells) | CMA activating effect upon knock-down of NCoR1 (NIH3T3 cells) | CMA activation (NIH3T3 cells) | effect on macroautophagy (NIH3T3) | NCoR1 peptide binding to RARα [1] | solubility [2]
1 | Clc1ccc2c(c1)OCC(c1ccc(-c3ccccc3)cc1)=N2 [CA39] | activation was still noticeable | completely ablated the activating effect | activate CMA in a time and dose-dependent manner with higher potency than AR7 | did not have the inhibitory effect on macroautophagy | enhanced NCoR1 peptide binding to RARα | reasonable solubility
2 | CC(=O)Nc1ccc(C2=Nc3ccc(Cl)cc3OC2)cc1 [CA77] | activation was still noticeable | completely ablated the activating effect | activate CMA in a time and dose-dependent manner with higher potency than AR7 | did not have the inhibitory effect on macroautophagy | enhanced NCoR1 peptide binding to RARα | reasonable solubility
